We go through one compound from patent publication US10280145B2 (Toray Industries, Inc., priority 2015, dated 2019).

The term IC50 denotes the concentration at which inhibition is half-maximal.

The target of the assay is T1, intracellular domain of DDR1 (Homo sapiens, UniProt Q08345).
T1 construct: the intracellular domain of DDR1 (in a final concentration of 5 ng/μL) (Carna Biosciences, Inc.); purchased Carna Biosciences, Inc
The experiment in a line: Evaluation of DDR1 inhibition activity with HTRF KinEASE-TK kit. The assay is classed as biochemical. To be noted: DDR1 intracellular domain 5 ng/μL, ATP 25 μm/L, TK Substrate-biotin 1000 nmol/L, room temperature, one hour.

T1 sequence (Q08345 439-913 limits assumed): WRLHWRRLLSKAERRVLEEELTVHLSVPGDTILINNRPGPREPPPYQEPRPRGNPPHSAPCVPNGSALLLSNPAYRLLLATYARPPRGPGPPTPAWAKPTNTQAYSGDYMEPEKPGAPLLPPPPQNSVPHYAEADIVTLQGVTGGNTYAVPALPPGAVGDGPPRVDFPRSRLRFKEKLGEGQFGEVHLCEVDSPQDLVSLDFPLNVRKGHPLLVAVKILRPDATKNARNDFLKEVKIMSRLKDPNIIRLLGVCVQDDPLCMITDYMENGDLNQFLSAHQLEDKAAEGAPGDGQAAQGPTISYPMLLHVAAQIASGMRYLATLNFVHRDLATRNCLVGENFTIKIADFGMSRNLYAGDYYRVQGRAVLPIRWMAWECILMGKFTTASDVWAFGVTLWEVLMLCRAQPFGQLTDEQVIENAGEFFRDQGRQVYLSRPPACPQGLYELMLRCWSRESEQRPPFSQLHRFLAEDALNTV

`COc1c(CO)cc(C(F)(F)F)cc1NC(=O)N[C@H]1CC[C@H](OCc2ccncc2)CC1` [Example 21, 1-(3-(hydroxymethyl)-2-methoxy-5-(trifluoromethyl)phenyl)-3-(trans-4-(pyridin-4-ylmethoxy)cyclohexyl)urea] displayed an IC50 of 39.3 nM.
